Active and inactive are the calls of the source.
Tests used:
[1] = test system: Streptococcus sp. 'group A'; assay: growth inhibition of control SK(-) GAS strain, dose response, counter-screen for streptokinase expression inhibitor project, luminescence, kanamycin, BacTiterGlo, confirmation (AID 1900); format: functional, organism-based
[2] = Fluorescence Cell-Based Dose Response to Identify Inhibitors of Thrombin Receptor-Activating Peptide SFLLRN-Mediated P-Selectin Induction on Platelets. [Related pubchem assays: 1663 (Primary HTS), 1889 (retest at dose ), 1891 (counterscreen), 1678 (Project Summary)]; format: functional
[3] = Luminescence Cell-Based Dose Confirmation HTS to Identify Inhibitors of Platelet Dense Granule Release. [Related pubchem assays: 1663 (Primary HTS), 1678 (Summary of Project)]; format: functional
[4] = test system: Streptococcus; assay: Group A Streptococcus viability loss, dose response, counter-screen for streptokinase expression inhibitor project, luminescence, BacTiterGlo (AID 1915); format: functional, organism-based;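 note: potency for reduction of bacterial viability or growth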
[5] = molecular target: T1, Streptokinase A (Streptococcus pyogenes serotype M1, UniProt P10520); assay: S. pyogenes streptokinase expression inhibitors, potency, dose response, plasminogen activation absorbance, OD405 (AID 1914); format: functional, Streptococcus pyogenes M1 GAS;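 note: secreted streptokinase activity via plasminogen activation per viability signal from cell pellet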
T1 sequence (P10520 whole entry): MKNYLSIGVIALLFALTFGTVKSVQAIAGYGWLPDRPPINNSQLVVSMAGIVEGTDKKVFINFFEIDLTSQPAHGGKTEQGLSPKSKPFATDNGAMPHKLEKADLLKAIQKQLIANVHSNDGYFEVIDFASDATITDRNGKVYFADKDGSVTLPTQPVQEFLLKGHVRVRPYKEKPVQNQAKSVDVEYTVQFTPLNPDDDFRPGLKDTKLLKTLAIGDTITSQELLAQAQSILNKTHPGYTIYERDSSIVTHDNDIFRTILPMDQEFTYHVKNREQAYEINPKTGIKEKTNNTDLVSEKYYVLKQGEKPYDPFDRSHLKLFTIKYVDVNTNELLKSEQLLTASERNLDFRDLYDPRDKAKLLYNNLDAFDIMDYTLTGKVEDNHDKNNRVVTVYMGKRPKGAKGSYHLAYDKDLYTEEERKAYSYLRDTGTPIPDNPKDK

[6] = molecular target: T2, Luciferin 4-monooxygenase (Photinus pyralis, UniProt P08659); assay: firefly luciferase enzyme inhibitors, dose response, biochemical, luminescence (AID 1891)
[7] = test system: INS1; assay: beta cell apoptosis inhibitors, cytokine rescue, dose response, luminescence, retest (AID 449756); format: functional, cell-based; details: Rattus norvegicus;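 note: cell death triggered by IL-1 beta plus TNF-alpha plus IFN-gamma mixture; protective hits raise ATP signal compared with cytokine alone wells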
[8] = HepG2 cell cytotoxicity, dose response, cytotoxicity control for Shn3 inhibitor project, CellTiter-Glo, cherry-picked (AID 624134); format: functional, cell-based
[9] = CEM21 cell cytotoxicity, dose response, cytotoxicity control, plate reader, dry powder (AID 687026); format: functional, cell-based
[10] = Shn3 3'UTR reporter inhibitors, dose response, cell-based, Clone20 osteoblasts, firefly luciferase, cherry-picked (AID 624132); format: functional;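 note: firefly luciferase luminescence from reporter carrying the Shn3 3'UTR in osteoblasts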
[11] = control 3'UTR Renilla luciferase suppression, dose response, counter-screen for Shn3 inhibitor project, cell-based, Clone20-Shn3RL, cherry-picked (AID 624133); format: functional
[12] = off-target signal loss in HeLa-CEM21 co-culture – HeLa F-luc CTL cells, cherry-picked, counter-screen for HIV-1 Env fusion inhibitor project, dose response (AID 652040); format: functional, cell-based;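 note: potency for signal decrease marking cytotoxic or nonspecific inhibition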
[13] = inhibitors of HIV Env-driven cell fusion, dose response, cherry-pick (AID 652057); format: functional, cell-based
[14] = test system: Jurkat; assay: antigen receptor-induced NF-kB inhibitors, dose response, Jurkat, luciferase reporter, luminescence, B- and T-cell (AID 489004); format: functional, cell-based; details: Homo sapiens;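 note: NF-kB luciferase reporter Jurkat cells stimulated with PMA plus ionomycin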
[15] = ZM109 Env clade C HIV-1 fusion inhibitors, dose response, HeLa effector, CEM target cells, luciferase, cherry-pick (AID 652058); format: functional, cell-based
[16] = inhibitors of clade B AD8 Env fusion, dose response, cell-based, cherry-pick (AID 652062); format: functional;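 note: luciferase signal from cell-cell fusion driven by HIV-1 clade B AD8 Env; potency is for inhibitors of fusion seen as a drop in luminescence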
[17] = cytotoxicity in HEK-293T NF-kB-Luc cells, dose response, cytotoxicity control for B/T-cell NF-kB inhibitor project, cell-based, uHTS hits (AID 489019); format: functional;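 note: IC50 reflects cytotoxicity as loss of cell viability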
[18] = molecular target: Galanin receptor type 2 (Homo sapiens, UniProt O43603); assay: Dose Response cell-based high-throughput screening assay to identify antagonists of galanin receptor 2 (GALR2). [Related pubchem assays: 828, 866 ]; format: functional
[19] = molecular target: COUP transcription factor 2 (Homo sapiens, UniProt P24468); assay: Luminescence-based cell-based high throughput dose response assay to identify inhibitors of COUP-TFII (NR2F2).; format: functional;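 note: HEK293 cells transiently cotransfected with COUP-TFII expression vector and reporter; luciferase reporter luminescence driven by COUP-TFII from the pX2-168 reporter plasmid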
[20] = Late stage assay provider results from the probe development effort to identify selective inhibitors of heat shock protein 90 (HSP90): Absorbance-based cell proliferation assay in SKBR3 cells.; format: functional; details: SK-BR-3
[21] = test system: HT-1080; assay: cytotoxicity in HT1080 fibrosarcoma cells, cell-based, fluorescence readout (AID 620); format: functional; details: Homo sapiens
[22] = inhibitors of fibronectin matrix deposition, dose response, AH1F cells, Alexa488-FN fluorescence, cherry-picks (AID 1035475); format: functional, cell-based
[23] = Late stage assay provider results from the probe development effort to identify selective inhibitors of heat shock protein 90 (HSP90): Absorbance-based cell proliferation assay in MCF7 cells.; format: functional
[24] = molecular target: T2, Luciferin 4-monooxygenase; assay: Counter Screen for Luciferase-based Assay Positives. [Related pubchem assays: 620, 618, 411 ]
[25] = HEK293 cell cytotoxicity, dose response, cytotoxicity control, cherry-picks, set 5 (AID 1053117); format: functional, cell-based
[26] = molecular target: T1, Streptokinase A; assay: Absorbance Microorganism-Based Dose Response Follow up to Identify Inhibitors of Streptokinase Expression. [Related pubchem assays: 1677 (Project Summary), 1915, 1914, 1902 (Retest at Dose), 1900 (Counter Screen), 1662 (Primary HTS)]; format: functional, Streptococcus pyogenes M1 GAS
[27] = test system: Streptococcus; assay: Streptococcus pyogenes growth inhibition counter-screen, dose response, counter-screen for streptokinase expression inhibitor project, luminescence, BacTiter-Glo, strain UMAA2166 (AID 2477); format: functional, organism-based
[28] = molecular target: Epstein-Barr nuclear antigen 1 (Epstein-Barr virus (strain B95-8) (HHV-4) (Human herpesvirus 4), UniProt P03211); assay: EBNA-1 inhibitors, dose response, biochemical, fluorescence polarization, 1536-well (AID 2381); parameters: species or system human gammaherpesvirus 4;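 note: fluorescence polarization of a Cy5 DNA probe bound by EBNA-1 protein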
[29] = molecular target: Lytic switch protein BZLF1 (Epstein-Barr virus (strain B95-8) (HHV-4) (Human herpesvirus 4), UniProt P03206); assay: EBV ZTA inhibitors, dose response, counter-screen for EBNA-1 inhibitor project, biochemical, fluorescence polarization, Epstein-Barr virus, 1536-well (AID 2377); parameters: species or system human gammaherpesvirus 4;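 note: fluorescence polarization of Cy5-labelled ZRE DNA probe bound by purified Zta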
[30] = molecular target: Transitional endoplasmic reticulum ATPase (Homo sapiens, UniProt P55072); assay: Luminescence dose response biochemical high throughput screening assay for inhibitors of the p97 ATPase: synthesized compounds. [Related pubchem assays: 1481, 1517 ]
[31] = molecular target: Transitional endoplasmic reticulum ATPase (Homo sapiens, UniProt P55072, C522A); assay: Luminescence counterscreen assay for p97 inhibitors: dose response biochemical high throughput screening assay to identify inhibitors of the C522A mutant p97 ATPase: synthesized compounds. [Related pubchem assays: 1481, 1517, 1551 ]
[32] = molecular target: Photoreceptor-specific nuclear receptor (Homo sapiens, UniProt Q9Y5X4); assay: NR2E3 inverse agonists, dose response, biochemical, TR-FRET (AID 463256); format: functional
[33] = molecular target: Peroxisome proliferator-activated receptor gamma/Nuclear receptor corepressor 2 (Homo sapiens, UniProt P37231+Q9Y618); assay: Counterscreen for NR2E3 inverse agonists: TR-FRET-based biochemical high throughput dose response assay to identify inverse agonists of the interaction between peroxisome proliferator-activated receptor gamma (PPARg) and nuclear receptor co-repressor 2 (NCOR2).; format: functional
[34] = molecular target: T3, RNA-binding protein pos-1 (Caenorhabditis elegans, UniProt G5EF15); assay: inhibitors of POS-1/mex-3 RNA binding, dose response, biochemical, fluorescence polarization (AID 1964);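 note: purified POS-1 fused to maltose binding protein made in E. coli; potency of compounds blocking POS-1 binding to fluorescent RNA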
T3 sequence (G5EF15 whole entry): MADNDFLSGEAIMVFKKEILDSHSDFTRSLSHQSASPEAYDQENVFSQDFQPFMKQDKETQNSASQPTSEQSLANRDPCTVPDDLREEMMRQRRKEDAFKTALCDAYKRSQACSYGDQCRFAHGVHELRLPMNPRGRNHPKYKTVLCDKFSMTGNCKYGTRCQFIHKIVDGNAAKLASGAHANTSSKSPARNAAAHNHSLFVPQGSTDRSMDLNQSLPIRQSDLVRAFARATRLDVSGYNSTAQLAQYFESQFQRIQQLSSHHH

[35] = Escherichia coli growth inhibition, dose response, counter-screen for MEX-5/POS-1 RNA-binding inhibitor project, luminescence, NEB5alpha (AID 1959); format: functional
[36] = enhancers of respiration in Yfh1-depleted yeast, dose response, Friedreich's ataxia, plus single-dose screen (AID 1465); format: functional;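 note: yeast depleted of Yfh1p frataxin homolog grown on glycerol needing respiration; WST-1 tetrazolium dye reduction as measure of cellular dehydrogenase metabolic activity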
[37] = ADAM10 protease inhibitors, dose response, selectivity assay for ADAM17 exosite inhibitor project, biochemical, FRET peptide substrate, recombinant human ADAM10 (AID 743259);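 note: ADAM10 enzyme cleaving a FRET peptide substrate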
[38] = molecular target: Disintegrin and metalloproteinase domain-containing protein 17 (Homo sapiens, UniProt P78536); assay: exosite inhibitors of ADAM17, dose response, biochemical (AID 743260)
[39] = molecular target: T4, Estrogen receptor (Homo sapiens, UniProt P03372); assay: potentiators of ERα–SRC-1 coactivator binding, dose response, biochemical, TR-FRET, ERα LBD (AID 737)
T4 sequence (P03372 whole entry): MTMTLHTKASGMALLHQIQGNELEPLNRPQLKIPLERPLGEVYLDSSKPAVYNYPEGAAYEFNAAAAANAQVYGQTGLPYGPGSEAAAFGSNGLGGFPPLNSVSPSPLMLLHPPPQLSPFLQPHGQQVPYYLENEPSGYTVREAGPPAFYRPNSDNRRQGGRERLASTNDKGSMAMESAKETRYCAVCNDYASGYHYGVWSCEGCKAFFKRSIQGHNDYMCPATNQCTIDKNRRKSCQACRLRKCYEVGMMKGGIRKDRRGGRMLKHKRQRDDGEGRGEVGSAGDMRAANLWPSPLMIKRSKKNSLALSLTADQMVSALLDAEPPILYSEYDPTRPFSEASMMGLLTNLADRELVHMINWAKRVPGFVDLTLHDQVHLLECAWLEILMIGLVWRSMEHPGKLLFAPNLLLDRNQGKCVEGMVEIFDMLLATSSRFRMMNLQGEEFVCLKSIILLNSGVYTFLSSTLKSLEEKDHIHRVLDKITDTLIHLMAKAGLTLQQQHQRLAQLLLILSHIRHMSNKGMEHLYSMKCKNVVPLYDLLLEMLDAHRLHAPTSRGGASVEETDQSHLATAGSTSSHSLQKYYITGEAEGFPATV

T2 sequence (P08659 whole entry): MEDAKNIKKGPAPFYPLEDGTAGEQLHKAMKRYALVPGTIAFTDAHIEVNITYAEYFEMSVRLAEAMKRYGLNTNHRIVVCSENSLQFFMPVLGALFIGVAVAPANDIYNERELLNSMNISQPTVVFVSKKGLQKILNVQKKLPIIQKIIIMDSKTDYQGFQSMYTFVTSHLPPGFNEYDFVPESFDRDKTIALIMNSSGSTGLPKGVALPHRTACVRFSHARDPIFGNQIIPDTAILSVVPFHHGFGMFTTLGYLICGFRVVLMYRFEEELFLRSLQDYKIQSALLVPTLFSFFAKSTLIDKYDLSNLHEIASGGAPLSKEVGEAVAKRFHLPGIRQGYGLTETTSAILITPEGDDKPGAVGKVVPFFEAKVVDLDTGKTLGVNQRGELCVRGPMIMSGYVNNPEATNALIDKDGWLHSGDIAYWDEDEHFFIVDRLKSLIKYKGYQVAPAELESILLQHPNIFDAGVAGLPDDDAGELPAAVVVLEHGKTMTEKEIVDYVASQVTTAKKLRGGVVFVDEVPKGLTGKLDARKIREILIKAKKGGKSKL
Galanin receptor type 2, sequence (O43603 whole entry): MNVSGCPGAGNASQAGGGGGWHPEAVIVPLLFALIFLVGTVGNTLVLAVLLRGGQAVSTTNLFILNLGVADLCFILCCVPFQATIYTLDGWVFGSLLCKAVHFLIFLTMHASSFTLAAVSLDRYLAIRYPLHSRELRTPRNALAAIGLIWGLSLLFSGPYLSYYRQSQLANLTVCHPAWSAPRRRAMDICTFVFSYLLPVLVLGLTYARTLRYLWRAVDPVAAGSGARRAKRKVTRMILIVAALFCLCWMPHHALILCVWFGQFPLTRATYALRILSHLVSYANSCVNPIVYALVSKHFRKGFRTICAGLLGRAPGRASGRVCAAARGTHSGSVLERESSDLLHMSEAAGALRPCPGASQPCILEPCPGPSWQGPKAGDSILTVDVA
Transitional endoplasmic reticulum ATPase (Homo sapiens, UniProt P55072), sequence (P55072 whole entry): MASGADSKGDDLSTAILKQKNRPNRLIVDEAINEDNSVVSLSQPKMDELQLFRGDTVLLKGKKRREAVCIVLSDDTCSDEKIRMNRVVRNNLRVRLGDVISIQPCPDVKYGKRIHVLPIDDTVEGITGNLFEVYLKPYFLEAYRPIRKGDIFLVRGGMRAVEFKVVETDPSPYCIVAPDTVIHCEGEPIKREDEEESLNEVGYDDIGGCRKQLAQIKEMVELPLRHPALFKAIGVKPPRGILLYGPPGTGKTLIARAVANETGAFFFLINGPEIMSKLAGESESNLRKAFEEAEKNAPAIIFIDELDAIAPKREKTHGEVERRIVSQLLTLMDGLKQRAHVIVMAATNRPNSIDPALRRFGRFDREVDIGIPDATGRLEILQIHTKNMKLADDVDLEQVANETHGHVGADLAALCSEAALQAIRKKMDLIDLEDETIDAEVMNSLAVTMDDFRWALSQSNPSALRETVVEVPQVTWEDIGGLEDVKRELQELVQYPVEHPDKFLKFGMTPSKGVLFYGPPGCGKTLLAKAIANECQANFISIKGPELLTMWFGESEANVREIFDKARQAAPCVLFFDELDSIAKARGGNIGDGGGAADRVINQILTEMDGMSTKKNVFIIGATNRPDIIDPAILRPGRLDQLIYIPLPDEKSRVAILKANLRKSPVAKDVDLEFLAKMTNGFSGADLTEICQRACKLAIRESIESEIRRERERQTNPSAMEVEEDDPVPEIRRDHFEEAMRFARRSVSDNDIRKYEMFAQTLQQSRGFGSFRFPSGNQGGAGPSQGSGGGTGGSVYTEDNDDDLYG
Disintegrin and metalloproteinase domain-containing protein 17, sequence (P78536 whole entry, the tested form may be a part): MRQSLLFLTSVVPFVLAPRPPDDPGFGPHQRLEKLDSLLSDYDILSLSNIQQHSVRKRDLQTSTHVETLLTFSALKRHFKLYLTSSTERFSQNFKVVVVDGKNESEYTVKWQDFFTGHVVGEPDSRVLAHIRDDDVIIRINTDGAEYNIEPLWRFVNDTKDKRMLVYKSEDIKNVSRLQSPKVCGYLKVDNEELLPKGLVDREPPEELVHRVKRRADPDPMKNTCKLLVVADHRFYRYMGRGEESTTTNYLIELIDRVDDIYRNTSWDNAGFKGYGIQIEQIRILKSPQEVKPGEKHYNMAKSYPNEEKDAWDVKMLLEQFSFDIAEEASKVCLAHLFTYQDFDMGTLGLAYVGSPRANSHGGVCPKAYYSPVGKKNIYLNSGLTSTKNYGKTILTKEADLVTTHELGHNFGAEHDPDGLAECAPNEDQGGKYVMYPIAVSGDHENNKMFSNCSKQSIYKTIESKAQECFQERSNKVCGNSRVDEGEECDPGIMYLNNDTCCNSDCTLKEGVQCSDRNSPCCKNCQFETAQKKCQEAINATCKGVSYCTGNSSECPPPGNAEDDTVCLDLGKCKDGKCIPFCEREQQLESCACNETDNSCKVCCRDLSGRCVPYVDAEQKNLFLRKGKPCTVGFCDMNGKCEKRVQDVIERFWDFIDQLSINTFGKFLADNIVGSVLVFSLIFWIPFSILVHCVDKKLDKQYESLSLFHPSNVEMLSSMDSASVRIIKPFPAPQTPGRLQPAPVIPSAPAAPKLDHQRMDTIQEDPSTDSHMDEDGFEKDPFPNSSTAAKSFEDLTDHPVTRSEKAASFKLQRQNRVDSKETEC
Photoreceptor-specific nuclear receptor, sequence (Q9Y5X4 whole entry): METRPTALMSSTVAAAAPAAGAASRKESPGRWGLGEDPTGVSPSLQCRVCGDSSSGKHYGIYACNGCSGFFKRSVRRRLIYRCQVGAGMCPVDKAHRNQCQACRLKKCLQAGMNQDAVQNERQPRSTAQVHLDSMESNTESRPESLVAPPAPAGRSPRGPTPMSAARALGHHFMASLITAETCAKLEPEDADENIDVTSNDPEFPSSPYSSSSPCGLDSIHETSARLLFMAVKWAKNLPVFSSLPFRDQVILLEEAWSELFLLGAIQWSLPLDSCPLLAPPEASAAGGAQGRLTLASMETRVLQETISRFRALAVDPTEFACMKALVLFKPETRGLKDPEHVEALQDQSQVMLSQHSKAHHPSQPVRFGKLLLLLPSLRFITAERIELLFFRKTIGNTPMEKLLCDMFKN
Epstein-Barr nuclear antigen 1, sequence (P03211 whole entry): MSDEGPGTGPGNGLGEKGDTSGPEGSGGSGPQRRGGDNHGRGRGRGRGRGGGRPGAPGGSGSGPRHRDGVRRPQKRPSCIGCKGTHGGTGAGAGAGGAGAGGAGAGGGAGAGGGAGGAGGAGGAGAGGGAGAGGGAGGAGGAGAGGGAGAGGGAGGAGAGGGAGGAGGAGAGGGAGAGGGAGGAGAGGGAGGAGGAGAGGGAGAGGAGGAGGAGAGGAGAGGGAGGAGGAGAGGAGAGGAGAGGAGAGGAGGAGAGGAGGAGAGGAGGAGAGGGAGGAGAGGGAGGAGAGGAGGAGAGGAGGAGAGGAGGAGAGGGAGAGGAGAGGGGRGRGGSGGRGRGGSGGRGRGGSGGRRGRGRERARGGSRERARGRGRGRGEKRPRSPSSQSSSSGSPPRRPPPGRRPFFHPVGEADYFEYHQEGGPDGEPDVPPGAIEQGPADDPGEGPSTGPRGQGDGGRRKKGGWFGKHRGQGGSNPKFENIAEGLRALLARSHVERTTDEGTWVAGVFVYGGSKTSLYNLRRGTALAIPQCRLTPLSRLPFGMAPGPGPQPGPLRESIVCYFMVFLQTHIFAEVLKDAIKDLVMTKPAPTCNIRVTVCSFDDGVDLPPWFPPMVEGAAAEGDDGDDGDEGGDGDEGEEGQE
COUP transcription factor 2, sequence (P24468 whole entry): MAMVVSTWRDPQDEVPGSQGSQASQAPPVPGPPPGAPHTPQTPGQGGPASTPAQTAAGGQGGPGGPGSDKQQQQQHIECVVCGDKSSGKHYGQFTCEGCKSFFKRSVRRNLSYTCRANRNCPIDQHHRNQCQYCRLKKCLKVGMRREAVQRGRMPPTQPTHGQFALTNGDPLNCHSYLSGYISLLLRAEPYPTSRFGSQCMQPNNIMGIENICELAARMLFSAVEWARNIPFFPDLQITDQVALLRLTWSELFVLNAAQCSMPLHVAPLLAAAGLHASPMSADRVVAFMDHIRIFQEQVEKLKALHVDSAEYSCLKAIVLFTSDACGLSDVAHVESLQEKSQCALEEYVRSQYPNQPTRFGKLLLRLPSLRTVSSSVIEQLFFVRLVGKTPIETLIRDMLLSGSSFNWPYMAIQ
Transitional endoplasmic reticulum ATPase (Homo sapiens, UniProt P55072, C522A), sequence (P55072 2-806 C522A limits assumed): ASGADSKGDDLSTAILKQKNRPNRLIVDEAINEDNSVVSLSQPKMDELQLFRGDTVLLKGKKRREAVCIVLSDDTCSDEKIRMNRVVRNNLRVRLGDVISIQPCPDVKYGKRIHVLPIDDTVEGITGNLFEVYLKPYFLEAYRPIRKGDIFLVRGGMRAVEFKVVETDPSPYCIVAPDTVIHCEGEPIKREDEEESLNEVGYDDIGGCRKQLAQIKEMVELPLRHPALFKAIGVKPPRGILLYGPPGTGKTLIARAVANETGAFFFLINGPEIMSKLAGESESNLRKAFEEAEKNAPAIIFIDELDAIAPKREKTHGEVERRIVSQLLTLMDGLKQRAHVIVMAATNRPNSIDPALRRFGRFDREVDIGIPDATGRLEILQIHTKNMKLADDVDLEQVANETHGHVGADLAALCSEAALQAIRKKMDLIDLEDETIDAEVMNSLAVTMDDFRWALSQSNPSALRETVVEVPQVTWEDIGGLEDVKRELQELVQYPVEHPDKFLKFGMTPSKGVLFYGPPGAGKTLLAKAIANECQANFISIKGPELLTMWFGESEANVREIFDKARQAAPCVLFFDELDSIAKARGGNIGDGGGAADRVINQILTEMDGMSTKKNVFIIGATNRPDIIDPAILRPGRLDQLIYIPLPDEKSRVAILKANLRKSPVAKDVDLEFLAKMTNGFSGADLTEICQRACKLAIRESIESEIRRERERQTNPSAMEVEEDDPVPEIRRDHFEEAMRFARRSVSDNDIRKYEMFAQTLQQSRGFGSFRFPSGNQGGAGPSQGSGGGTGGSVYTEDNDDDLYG

Compound: CC(=O)Oc1ccc(-c2nc(-c3cccnc3)no2)cc1
- EC50 [1]: 4.89 µM (active)
- EC50 [2]: 30 µM (not active)
- EC50 [3]: < 0.701 µM (active)
- EC50 [4]: 17.3 µM (active)
- EC50 [5]: > 150 µM (not active)
- EC50 [6]: 8.16 µM (active)

Compound: CCOc1ccc(S(=O)(=O)NCc2ccncc2)cc1
- AC50 [7]: 1.08 µM (active)
- AC50 [8]: 603 nM (active)
- AC50 [9]: > 70 µM (inactive)
- AC50 [10]: 261 nM (active)
- AC50 [11]: 10.5 µM (active)
- AC50 [12]: > 70 µM (inactive)
- AC50 [13]: 1.36 µM (active)
- IC50 [14]: > 80 µM (inactive)
- AC50 [15]: < 260 nM (active)
- AC50 [16]: 2.72 µM (active)
- IC50 [17]: > 80 µM (inactive)
- IC50 [18]: > 42 µM (not active)
- IC50 [19]: 2.27 µM (active)

Compound: CC(C)CNC(=O)c1coc(=O)c(Br)c1
- IC50 [20]: 22 µM (inactive)
- EC50 [21]: 20.4 µM (active)
- AC50 [22]: 23.9 µM (active)
- IC50 [23]: 7.5 µM (active)
- EC50 [24]: 1.83 µM (active)
- AC50 [25]: > 52 µM (inactive)

Compound: CCCOc1ccc(-c2nc(Oc3ccccc3)c3ccccc3n2)cc1
- EC50 [26]: 71.6 µM (active)
- EC50 [27]: > 500 µM (not active)

Compound: COC(=O)c1ccc2nc(NC(=O)CCS(=O)(=O)c3ccccc3)sc2c1
- IC50 [28]: 39 µM (not active)
- IC50 [29]: > 111 µM (not active)

Compound: CCOC(=O)/C(C#N)=C/c1ccc([N+](=O)[O-])cc1
- IC50 [30]: > 50 µM (not active)
- IC50 [31]: > 50 µM (not active)

Compound: CCCS(=O)(=O)N1CCC(C(=O)NCCCN(CC)c2cccc(C)c2)CC1
- IC50 [32]: > 4.43 µM (active)
- IC50 [33]: > 4.43 µM (active)

Compound: CCOc1ccc(N/N=C2/C(=O)Nn3c2nc(C)cc3=O)cc1
- EC50 [3]: 9.37 µM (active)
- EC50 [34]: 213 µM (active)
- EC50 [35]: 16.2 µM (active)
- EC50 [36]: > 100 µM (active)
- IC50 [37]: 24.7 µM (inactive)
- EC50 [6]: 0.535 µM (active)
- IC50 [38]: > 69.5 µM (inactive)

Compound: C[C@]12CC[C@@H]3c4ccc(O)cc4C(=O)C[C@H]3[C@@H]1CC[C@@H]2O
- EC50 [39]: 12.5 µM (active)

Source: ChEMBL document CHEMBL1201862, “PubChem BioAssay data set” (2004)
